Our source for the MIC values is patent publication US4698352A, “4-oxo-1,4-dihydronicotinic acid derivatives, salts thereof, and antibacterial agents containing the same” (Toyama Chemical Co., Ltd., priority 1982, dated 1987).

Common to all, as to test: Antibacterial activity (MIC), agar dilution
Common to all, as to format: cell-based

One assay has as its system Ps. aeruginosa S-68. The settings on record: Pseudomonas aeruginosa. The text has this:
(§1) The amount of bacteria inoculated was 10^4 cells per plate (10^6 cells per ml).

For the next assay, the system named is Kl. pneumoniae Y-50. The settings on record: Klebsiella pneumoniae, Y50, 20 h, 10^6 cells per ml, 37° C., read-out: MIC.
Description: as §1

The subject of the next assay is E. coli TK-111. The settings on record: Escherichia coli, TK111, 20 h, E. coli TK-111; 10^6 cells per ml; 37° C., 20 hours; read-out: MIC.
Description: as §1

The next assay deals with Pro. vulgaris GN3027. The settings on record: Proteus vulgaris, GN3027, 20 h, Pro. vulgaris GN3027; 10^6 cells per ml; 37° C., 20 hours; read-out: MIC.
Description: as §1

For the next assay, the system named is Kl. pneumoniae Y-41. The settings on record: Klebsiella pneumoniae, Y41, 10^6 cells per ml, 37° C., 20 hours, read-out: MIC.
Description: as §1

The test system of a further assay is E. coli NIHJ JC-2. The settings on record: Escherichia coli, NIHJJC2, 20 h, E. coli NIHJ JC-2; 10^6 cells per ml; 37° C., 20 hours; read-out: MIC.
Description: as §1

Another assay deals with St. aureus FDA209P. The settings on record: Staphylococcus aureus, FDA209P, 20 h, St. aureus FDA209P; 10^6 cells per ml; 37° C., 20 hours; read-out: MIC.
Description: as §1

The next assay relates to Pro. morganii T-216. The settings on record: Morganella morganii, T216, 10^6 cells per ml, 37° C., 20 hours, read-out: MIC.
Description: as §1

The test system of another assay is Ent. cloacae IID977. The settings on record: Enterobacter cloacae, IID977, 20 h, Ent. cloacae IID977; 10^6 cells per ml; 37° C., 20 hours; read-out: MIC.
Description: as §1

The test system of a further assay is Aci. antitratus A-6. The settings on record: 20 h, Aci. antitratus A-6; 10^6 cells per ml; 37° C., 20 hours; read-out: MIC.
Description: as §1

In a further assay the test system is Ps. aeruginosa IFO3445. The settings on record: Pseudomonas aeruginosa, IFO3445, 20 h.
Description: as §1

For another assay, the system named is Pro. mirabilis T-111. The settings on record: Proteus mirabilis, 37° C.
Description: as §1

The subject of another assay is Pro. vulgaris GN76**. The settings on record: Proteus vulgaris, 20 h; Pro. vulgaris GN76, cephalospolinase-producing; 10^6 cells per ml; read-out: MIC.
Description: as §1
(§2) ** Cephalospolinase-producing bacteria

The next assay concerns E. coli GN5482**. The settings on record: Escherichia coli, 20 h; E. coli GN5482, cephalospolinase-producing; 10^6 cells per ml; read-out: MIC.
Description: as §1, §2

A further assay concerns Ps. aeruginosa GN918**. The settings on record: Pseudomonas aeruginosa, 20 h; Ps. aeruginosa GN918, cephalospolinase-producing; 10^6 cells per ml; read-out: MIC.
Description: as §1, §2

Another assay concerns St. aureus F-137*. The settings on record: Staphylococcus aureus, 20 h, St. aureus F-137, penicillinase-producing; 10^6 cells per ml; read-out: MIC.
Description: as §1
(§3) * Penicillinase-producing bacteria

Another assay concerns E. coli TK-3*. The settings on record: Escherichia coli, 20 h, E. coli TK-3, penicillinase-producing; 10^6 cells per ml; read-out: MIC.
Description: as §1, §3

Another assay has as its system Kl. pneumoniae Y-4*. The settings on record: Klebsiella pneumoniae, 20 h, Kl. pneumoniae Y-4, penicillinase-producing; 10^6 cells per ml; read-out: MIC.
Description: as §1, §3

The next assay has as its system Ps. aeruginosa GN3379*. The settings on record: Pseudomonas aeruginosa, Ps. aeruginosa GN3379, penicillinase-producing, 10^6 cells per ml.
Description: as §1, §3

Setting [1] is: S68, Ps. aeruginosa S-68, 10^6 cells per ml, 37° C., 20 hours, read-out: MIC.
The mark [2] stands for this setting: T111, 10^6 cells per ml, 20 hours, read-out: MIC.

SMILES strings stand for the structures. Values after ≈ are worked out from the molar mass of the structure shown. Like-named read-outs stand apart in the source and are kept apart here.

For `CN(C)c1ccc(-c2cc(=O)c(C(=O)O)cn2-c2ccc(O)c(F)c2)cc1`, the MIC was 1.56 µg/mL (≈ 4.23 µM) in the assay on Ps. aeruginosa S-68 (setting [1]); 0.39 µg/mL (≈ 1.06 µM) in the assay on Kl. pneumoniae Y-50; 0.1 µg/mL (≈ 0.271 µM) in the assay with E. coli TK-111; 0.2 µg/mL (≈ 0.543 µM) in the assay on Pro. vulgaris GN3027; 3.13 µg/mL (≈ 8.5 µM) in the assay on Kl. pneumoniae Y-41; 0.39 µg/mL (≈ 1.06 µM) in the assay on E. coli NIHJ JC-2. Further, the minimum inhibitory concentration (MIC) in the assay with St. aureus FDA209P was determined as 0.39 µg/mL (≈ 1.06 µM); in the assay on Pro. morganii T-216 it was 1.56 µg/mL (≈ 4.23 µM); with Ent. cloacae IID977 it was 1.56 µg/mL (≈ 4.23 µM); in the assay with Aci. antitratus A-6, 0.39 µg/mL (≈ 1.06 µM); against Ps. aeruginosa IFO3445, 3.13 µg/mL (≈ 8.5 µM); in the assay with Pro. mirabilis T-111 (T111, 20 h, 10^6 cells per ml), 3.13 µg/mL (≈ 8.5 µM). Further, the MIC in the assay on Pro. vulgaris GN76** is 0.78 µg/mL (≈ 2.12 µM); in the assay on E. coli GN5482**, no more than 0.05 µg/mL; with Ps. aeruginosa GN918**, 12.5 µg/mL (≈ 33.9 µM); in the assay on St. aureus F-137* it was 0.39 µg/mL (≈ 1.06 µM); with E. coli TK-3*, 0.78 µg/mL (≈ 2.12 µM); in the assay with Kl. pneumoniae Y-4*, 3.13 µg/mL (≈ 8.5 µM). Also, in the assay on Ps. aeruginosa GN3379* (GN3379, 20 h), inhibition of growth (MIC) required 3.13 µg/mL (≈ 8.5 µM).

With `O=C(O)c1cn(-c2ccc(O)cc2F)c(-c2cc3ccccc3s2)cc1=O`, the minimal inhibitory concentration (MIC) in the assay with Ps. aeruginosa S-68 (S68, 20 h) is 1.56 µg/mL (≈ 4.09 µM); in the assay on Kl. pneumoniae Y-50 it was 0.2 µg/mL (≈ 0.524 µM); in the assay on E. coli TK-111 it was no more than 0.05 µg/mL; with Pro. vulgaris GN3027, no more than 0.05 µg/mL; in the assay on Kl. pneumoniae Y-41, 1.56 µg/mL (≈ 4.09 µM); in the assay on E. coli NIHJ JC-2, 0.2 µg/mL (≈ 0.524 µM). Besides, the minimum inhibitory concentration (MIC) was no more than 0.05 µg/mL in the assay on St. aureus FDA209P; 0.78 µg/mL (≈ 2.05 µM) in the assay with Pro. morganii T-216; 0.39 µg/mL (≈ 1.02 µM) in the assay with Ent. cloacae IID977; 0.1 µg/mL (≈ 0.262 µM) with Aci. antitratus A-6; 1.56 µg/mL (≈ 4.09 µM) against Ps. aeruginosa IFO3445; 0.78 µg/mL (≈ 2.05 µM) in the assay on Pro. mirabilis T-111 (setting [2]). Besides, the minimal inhibitory concentration (MIC) with Pro. vulgaris GN76** was 0.2 µg/mL (≈ 0.524 µM); with E. coli GN5482**, no more than 0.05 µg/mL; with Ps. aeruginosa GN918**, 3.13 µg/mL (≈ 8.21 µM); with St. aureus F-137* it was no more than 0.05 µg/mL; in the assay on E. coli TK-3*, 0.39 µg/mL (≈ 1.02 µM); in the assay on Kl. pneumoniae Y-4* it was 1.56 µg/mL (≈ 4.09 µM). Also, in the assay with Ps. aeruginosa GN3379* (GN3379, 20 h), the minimum inhibitory concentration (MIC) is 1.56 µg/mL (≈ 4.09 µM).

Consider `CC(=O)Oc1ccc(-n2cc(C(=O)O)c(=O)cc2-c2cc3ccccc3s2)c(F)c1`, for which the MIC with Ps. aeruginosa S-68 (setting [1]) was 1.56 µg/mL (≈ 3.68 µM); in the assay on Kl. pneumoniae Y-50, 0.39 µg/mL (≈ 0.921 µM); in the assay with E. coli TK-111, no more than 0.05 µg/mL; in the assay with Pro. vulgaris GN3027, 0.1 µg/mL (≈ 0.236 µM); in the assay on Kl. pneumoniae Y-41, 3.13 µg/mL (≈ 7.39 µM); in the assay with E. coli NIHJ JC-2, 0.39 µg/mL (≈ 0.921 µM). In addition, the MIC amounted to 0.1 µg/mL (≈ 0.236 µM) in the assay on St. aureus FDA209P; 1.56 µg/mL (≈ 3.68 µM) in the assay with Pro. morganii T-216; 0.78 µg/mL (≈ 1.84 µM) in the assay on Ent. cloacae IID977; 0.2 µg/mL (≈ 0.472 µM) with Aci. antitratus A-6; 3.13 µg/mL (≈ 7.39 µM) in the assay on Ps. aeruginosa IFO3445; 1.56 µg/mL (≈ 3.68 µM) in the assay on Pro. mirabilis T-111 (setting [2]). The minimal inhibitory concentration (MIC) is 0.39 µg/mL (≈ 0.921 µM) in the assay with Pro. vulgaris GN76**; no more than 0.05 µg/mL in the assay with E. coli GN5482**; 6.25 µg/mL (≈ 14.8 µM) in the assay with Ps. aeruginosa GN918**; no more than 0.05 µg/mL with St. aureus F-137*; 0.39 µg/mL (≈ 0.921 µM) in the assay with E. coli TK-3*; 3.13 µg/mL (≈ 7.39 µM) in the assay with Kl. pneumoniae Y-4*. The molecule also had a minimum inhibitory concentration (MIC) in the assay with Ps. aeruginosa GN3379* (GN3379, 20 h) of 3.13 µg/mL (≈ 7.39 µM).

Consider `O=C(O)c1cn(-c2ccc(O)cc2)c(-c2ccc(-c3cccs3)cc2)cc1=O`, for which the minimum inhibitory concentration (MIC) with Ps. aeruginosa S-68 (setting [1]) was 3.13 µg/mL (≈ 8.04 µM); in the assay on Kl. pneumoniae Y-50 it was 0.2 µg/mL (≈ 0.514 µM); in the assay with E. coli TK-111 it was no more than 0.05 µg/mL; in the assay with Pro. vulgaris GN3027 it was no more than 0.05 µg/mL; in the assay with Kl. pneumoniae Y-41 it was 1.56 µg/mL (≈ 4.01 µM); in the assay with E. coli NIHJ JC-2, 0.1 µg/mL (≈ 0.257 µM). The minimum inhibitory concentration (MIC) with St. aureus FDA209P is no more than 0.05 µg/mL; with Pro. morganii T-216, 0.39 µg/mL (≈ 1 µM); in the assay with Ent. cloacae IID977 it was 0.39 µg/mL (≈ 1 µM); with Aci. antitratus A-6 it was 0.1 µg/mL (≈ 0.257 µM); with Ps. aeruginosa IFO3445, 1.56 µg/mL (≈ 4.01 µM); with Pro. mirabilis T-111 (setting [2]), 0.39 µg/mL (≈ 1 µM). The MIC with Pro. vulgaris GN76** is 0.2 µg/mL (≈ 0.514 µM); in the assay with E. coli GN5482** it was no more than 0.05 µg/mL; in the assay with Ps. aeruginosa GN918**, 6.25 µg/mL (≈ 16 µM); in the assay with St. aureus F-137*, no more than 0.05 µg/mL; with E. coli TK-3* it was 0.39 µg/mL (≈ 1 µM); with Kl. pneumoniae Y-4* it was 0.78 µg/mL (≈ 2 µM). In the assay on Ps. aeruginosa GN3379* (20 h, read-out: MIC), the MIC is 3.13 µg/mL (≈ 8.04 µM).
